Source: US20260028364A1, “CATIONIC CHROMENONES AND THEIR USE IN ONCOLOGY” (FLORATEK PHARMA S.A., priority 2022, published 2026)

Assays:
[1] = Tolerability in the A2058 xenograft study; type: in vivo, Balb-c/nude mouse; conditions: peritumoral QOD; resolved after the treatment was stopped
Experimental: (§1) Each Balb-c/nude mouse was inoculated subcutaneously at the right flank with A2058 melanoma tumor cells (5×10^6+Matrigel) in 0.2 ml of PBS for tumor development. 10 animals per group were randomized when the average tumor volume reached 74 mm^3. Test compounds were prepared as DMSO stocks and diluted in the injection vehicle before administration. The treatment was administered every other day (QOD) as a peritumoral injection. Vehicle composition was 4% DMSO, 5% ethanol, 20% PEG200, 71% saline. Dosing volume for all groups: 5 mL/kg.
Body weight and clinical signs were monitored throughout the study.

Raji = test: CellTiter-Glo cell viability, Raji; type: cell-based; conditions: Homo sapiens; Raji cells, 72 h with compound
Experimental: (§2) Antitumor activity against a panel of cancer cell lines Antitumor activity of the compounds was assessed by using the CellTiter-Glow® Luminescent Cell Viability assay (Promega #G7572) according to the manufacturer's instructions. The compounds were tested at 5 or 6 concentrations in 1:2 dilution increments (highest concentration 10 µM) in triplicate well conditions.
(§3) Tumor cells were grown at 37° C. in a humidified atmosphere with 5% CO2 in RPMI 1640 or DMEM medium, supplemented with 10% (v/v) fetal calf serum and 50 μg/ml gentamicin for up to 20 passages, and were passaged once or twice weekly. Cells were harvested using TrypLE or PBS buffer containing 1 mM EDTA, and the percentage of viable cells is determined using a cell counter.
(§4) Cells were harvested from exponential phase cultures, counted and plated in 96 well flat-bottom microtiter plates at a cell density depending on the cell line's growth rate (4,000-20,000 cells/well depending on the cell line's growth rate) in RPMI 1640 or DMEM medium supplemented with 10% (v/v) fetal calf serum and 50 μg/ml gentamicin (140 μl/well). Cultures were incubated at 37° C. and 5% CO2 in a humidified atmosphere. […] Viability of cells was quantified by the CellTiter-Glow® Luminescent Cell Viability assay (Promega #G7572). Luminescence was measured with the microplate luminometer (En Vision Perkin Elmer). […]

Daudi = test: CellTiter-Glo cell viability, Daudi; type: cell-based; conditions: Homo sapiens; Daudi cells, 72 h with compound
Experimental: as §2, §3, §4

MCF-7 = test: CellTiter-Glo cell viability, MCF-7; type: cell-based; conditions: Homo sapiens, MCF7; MCF-7 cells, 72 h with compound
Experimental: as §2, §3
Cells were harvested from exponential phase cultures, counted and plated in 96 well flat-bottom microtiter plates at a cell density depending on the cell line's growth rate (4,000-20,000 cells/well depending on the cell line's growth rate) in RPMI 1640 or DMEM medium supplemented with 10% (v/v) fetal calf serum and 50 μg/ml gentamicin (140 μl/well). Cultures were incubated at 37° C. and 5% CO2 in a humidified atmosphere. After 24 h, 10 μl of test compounds or control medium are added, and left on the cells for another 72 h. Compounds were serially diluted in DMSO, transferred in cell culture medium, and added to the assay plates. The DMSO concentration was kept constant at <0.2% v/v across the assay plate. Viability of cells was quantified by the CellTiter-Glow® Luminescent Cell Viability assay (Promega #G7572). Luminescence was measured with the microplate luminometer (En Vision Perkin Elmer).
Sigmoidal concentration-response curves were fitted to the data points (test-versus-control, T/C values) obtained for each tumor model using Graph Pad prism 5.02 software. IC50 values are reported as absolute IC50 values, being the concentration of test compound at the intersection of the concentration-response curves with T/C=50%.

MDA-MB-468 = test: Caspase-Glo 3/7 apoptosis assay, MDA-MB-468; type: cell-based; conditions: MDA-MB-468 cells, 10 μM, 24 h
Experimental: (§5) Apoptosis activity was evaluated using Caspase-Glo 3/7 Assay kit (Promega-G8091) according to the manufacturer's instructions. Cells were grown as above and harvested from exponential phase cultures, counted and plated in 96 black well flat-bottom microtiter plates at a cell density depending on the cell line's growth rate (3,000-10,000 cells/well depending on the cell line's growth rate). Following an overnight incubation, compounds were added to the cell plates at various concentrations (highest at […]) with the DMSO concentration maintained at 0.1% for a 24 h period treatment. 100 μL of Caspase-Glo 3/7 Reagent was added to each well of 96-well plate containing 100 μL culture medium, and after 30 min at room temperature, luminescence was measured with the microplate luminometer (EnVision Perkin Elmer). The induced relative Caspase 3/7 activity of the tested compounds was determined by the following formula: Relative Caspase 3/7 activity (fold increase)=(RLU compound−RLU blank)/(RLU control−RLU blank).

A375 = test: Caspase-Glo 3/7 apoptosis assay, A375; type: cell-based; conditions: A375 cells, 10 μM, 24 h
Experimental: as §5

[2] = test system: A2058 melanoma tumor cells; test: In vivo tumour inhibition, A2058 melanoma xenograft; parameters: species or system Balb-c/nude mouse
Experimental: The A2058 tumor cells were maintained in vitro in DMEM medium supplemented with 10% fetal bovine serum and 1% Anti-Anti at 37° C. in an atmosphere of 5% CO2 in air. The tumor cells were routinely subcultured twice weekly.
as §1
Tumor volume was measured twice weekly in two dimensions using a caliper, and the volume was expressed in mm^3 using the formula: V=0.5a×b^2 where a and b are the long and short diameters of the tumor, respectively. The tumor size was then used for calculations of T/C value: The T/C value (in percent) is an indication of antitumor effectiveness; T and Care the mean volumes of the treated and control groups, respectively, on a given day.
One-way ANOVA was performed to compare tumor volume among treated groups and vehicle group, all data were analyzed using GraphPad Prism 5.0. p<0.05 was considered to be statistically significant.

SHP-77 = test: CellTiter-Glo cell viability, SHP-77; type: cell-based; conditions: Homo sapiens, SHP77; SHP-77 cells, 72 h with compound
Experimental: as §2, §3, §4

CHP-134 = test: Caspase-Glo 3/7 apoptosis assay, CHP-134; type: cell-based; conditions: CHP-134 cells, 3.16 μM, 24 h
Experimental: as §5

SK-Mel-5 = test: Caspase-Glo 3/7 apoptosis assay, SK-Mel-5; type: cell-based; conditions: SK-Mel-5 cells, 1 μM, 24 h
Experimental: as §5

[3] = 16 mg/kg peritumoral QOD, 6 injections, day 20 after treatment start

COc1ccc2c(=O)c(-c3ccc(CCCC[P+](c4ccccc4)(c4ccccc4)c4ccccc4)cc3)coc2c1OC.[Br-] [SND470, (4-(4-(7,8-Dimethoxy-4-oxo-4H-chromen-3-yl)phenyl)butyl)triphenylphosphonium bromide]
finding at the site of the injection [1]: slight scabbing at the site of the injection
IC50 (Raji): 530 nM
IC50 (Daudi): 710 nM
IC50 (MCF-7): 21 nM
Fold activation of Caspase 3/7 (MDA-MB-468): 3.15 Fold
Fold activation of Caspase 3/7 (A375): 13.98 Fold
T/C [2, 3]: 39.2%
TGI [2, 3]: 62.8%
Tumor Volume ([2]; 16 mg/kg peritumoral QOD, 6 injections, day 20 after treatment start, mean ± SEM): 886 ± 127 mm^3
activity in inhibiting A2058 melanoma cell line in vivo ([2]; nude mouse xenograft model of melanoma): significant activity
IC50 (SHP-77): 920 nM
Fold activation of Caspase 3/7 (CHP-134): 7.02 Fold
Fold activation of Caspase 3/7 (SK-Mel-5): 7.22 Fold
